The results in this text go back to patent publication US4529720A, “Antibiotic from Streptomyces clavulicerus” (Beecham Group, p.l.c., priority 1974, dated 1985).

Each structure is given as a SMILES string. Structures can show the parent of a compound that is named as a salt.

The test system of data set [1] is Klebsiella aerogenes E 70. As to the kind of experiment: Antibacterial synergism, microtitre MIC (Example 42). Type of data set: cell-based. To be noted: Table 8; method of Example 42.
The subject of another data set is Klebsiella aerogenes 62. The data set is described as above. It is filed as cell-based. To be noted: Table 8; method of Example 42.
In data set [2] the test system is Klebsiella aerogenes A. Described as above. Type of data set: cell-based. The following applies: Table 8; method of Example 42.
Data set [3] has as its system Klebsiella aerogenes A. As to the kind of experiment: Growth inhibition, alone and combined (description). Type of data set: cell-based. The following applies: 5 μg/ml of clavulanic acid also present.
The subject of data set [4] is Staphylococcus aureus (Russell). Description: Antibacterial synergism, microtitre MIC (Example 42). Type of data set: cell-based.
The next data set has as its system Staphylococcus aureus. Described as above. Type of data set: cell-based. To be noted: Table 6.
A further data set deals with bacteria. Description: Tests for antibacterial activity in broth (Example 32). It is filed as cell-based. To be noted: against bacteria resistant to these antibiotics.
Data set [5] in a line: Hydrolysis of methyl ester in pH 7 phosphate buffer. The following applies: 1 mg/ml, 37° C., 0.05M phosphate buffer pH 7, followed over 2 hours. It is filed as physicochemical. The protocol: The reaction was followed by paper chromatography (bioautographic system). Using the butanol/ethanol/water system to follow the reaction over a period of 2 hours the zone of the methyl ester at Rf 0.79 decreased in size as the zone of clavulanic acid at Rf 0.12 increased.

A short description of a further data set: Stability in human blood. It is filed as in vitro ADME.

With `CC1(C)S[C@@H]2[C@H](NC(=O)[C@H](N)c3ccccc3)C(=O)N2[C@H]1C(=O)O` [Ampicillin, ampicillin], the figures for the “M.I.C., Ampicillin + 5 μg/ml of Benzyl Ester of clavulanic acid” value (in data set [1]; in the data set with Klebsiella aerogenes 62; with Klebsiella aerogenes A [2]) were 3.9, 3.9 and 1.9, respectively. For the same molecule, the “M.I.C., Ampicillin + 5 μg/ml of Methyl Ester of clavulanic acid” value in data set [1] is listed as 3.9; in the data set on Klebsiella aerogenes 62 it was 3.9; with Klebsiella aerogenes A [2], 1.9.

As to `CC1(C)S[C@@H]2[C@H](NC(=O)Cc3ccccc3)C(=O)N2[C@H]1C(=O)O` [Benzylpenicillin, benzylpenicillin], the “concentration of penicillin inhibiting growth when clavulanic acid is also present” value in the data set on Klebsiella aerogenes A [3] is on record as “less than 12.5 μg/ml”.

As for `O=C(Cc1cccs1)N[C@@H]1C(=O)N2C(C(=O)[O-])=C(C[n+]3ccccc3)CS[C@H]12` [Cephaloridine, cephaloridine], the “Minimum Inhibitory Concentration of cephaloridine when synergist added at 1 μg/ml” value in data set [4] (clavulanic acid sodium salt at 1 μg/ml, compared with <0.03 μg/ml at 5 μg/ml, footnote of Table 6) is “Same value”. In the data set on Staphylococcus aureus (in presence of 5 μg/ml clavulanic acid sodium salt), the “Minimum Inhibitory Concentrations, Cephaloridine in presence of 5 μg/ml clavulanic acid sodium salt” value is 3.7 µg/mL.

With `COC(=O)[C@H]1/C(=C/CO)O[C@@H]2CC(=O)N21` [clavulanic acid methyl ester], in the data set on bacteria, the “antibacterial synergism in combination with ampicillin or cephaloridine” value is “marked antibacterial synergism”. Also, the “hydrolysis of the ester to clavulanic acid” value in data set [5] is listed as “Slow conversion of the ester to clavulanic acid”; in data set [5] (listed as methyl ester) it was “slowly hydrolyse to clavulanic acid”.

On to `O=C(O)[C@H]1/C(=C/CO)O[C@@H]2CC(=O)N21` [clavulanic acid sodium salt, 3-(β-hydroxyethylidine)-7-oxo-4-oxa-1-azabicyclo[3,2,0]heptane-2-carboxylic acid sodium salt], for which the “Minimum Inhibitory Concentrations” value in data set [4] (agent alone, Table 6) worked out at 15 µg/mL; with Staphylococcus aureus (agent alone), 62 µg/mL.

For the molecule `O=C(O)[C@H]1/C(=C/CO)O[C@@H]2CC(=O)N21` [clavulanic acid, Z-(2R,5R)-3-(β-hydroxyethylidene)-7-oxo-4-oxa-1-azabicyclo[3,2,0]heptane-2-carboxylic acid], in “Stability in human blood”, the “stability in human blood” value is listed as “high stability in human blood”.
